Experimental findings from article PMC5602538, “Assessment of the Drug Interaction Potential of Unconjugated and GalNAc3-Conjugated 2′-MOE-ASOs” (Molecular Therapy. Nucleic Acids, 2017) are described below.

One data set relates to T1, OATP1B3.
T1 construct: expressed in transfected cells; host or cells: MDCK-II
In words: OATP1B3 inhibition study in MDCK cells. In kind it is in vitro ADME. The note with it: MDCK-II cell monolayer expressing OATP1B3, probe [3H]-cholecystokinin octapeptide (CCK-8); rifampicin 100 μM, 2 μM CCK-8; read-out: % inhibition of OATP1B3-mediated transport of CCK-8, reference inhibitor. As to the method: A 96-well cell culture plate containing a monolayer of MDCK-II cells grown on a permeable support and a corresponding receiver tray was used. The basolateral compartment of the culture plate and wells were washed with warm HBSS three times, with wells of the culture plate serving as the apical compartment. The wash was aspirated by adding 150 μL of 37°C HBSS to both compartments. Plates were incubated at 37°C with orbital shaking at 60 rpm for 15 min for OAT1, OAT3, OCT1, OCT2, OATP1B1, and OATP1B3 (±5 min). The pre-incubation buffer from both compartments was aspirated and 150 μL of the following was added to the basal compartment. […] Samples containing probe substrate were added to 200 μL of scintillation fluid and counted on a 1450 Microbeta (PerkinElmer), whereas samples containing the test article were kept frozen. Test article concentrations, including control samples, were evaluated by an LC-MS method.
Signal to noise for probe substrates was calculated by dividing the uptake of the probe substrate in transporter-expressing cells by the uptake of probe substrate in control cells not expressing the transporter of interest. […]

A further data set deals with T2, OATP1B1.
T2 construct: expressed in transfected cells; host or cells: MDCK-II
In words: OATP1B1 inhibition study in MDCK cells. In kind it is in vitro ADME. The note with it: MDCK-II cell monolayer expressing OATP1B1, probe [3H]-estradiol-17β-D-glucuronide; rifampicin 100 μM, 2 μM substrate; read-out: % inhibition of OATP1B1-mediated transport of estradiol-17β-D-glucuronide, reference inhibitor. As to the method:
(§1) A 96-well cell culture plate containing a monolayer of MDCK-II cells grown on a permeable support and a corresponding receiver tray was used. The basolateral compartment of the culture plate and wells were washed with warm HBSS three times, with wells of the culture plate serving as the apical compartment. The wash was aspirated by adding 150 μL of 37°C HBSS to both compartments. Plates were incubated at 37°C with orbital shaking at 60 rpm for 15 min for OAT1, OAT3, OCT1, OCT2, OATP1B1, and OATP1B3 (±5 min). The pre-incubation buffer from both compartments was aspirated and 150 μL of the following was added to the basal compartment. […] Test article concentrations, including control samples, were evaluated by an LC-MS method.
(§2) Signal to noise for probe substrates was calculated by dividing the uptake of the probe substrate in transporter-expressing cells by the uptake of probe substrate in control cells not expressing the transporter of interest. Percent inhibition was calculated by dividing the net-transporter-mediated substrate uptake in the presence of the test article or the reference inhibitor by the net-transporter-mediated substrate uptake in the absence of the inhibitor according to the equation: %inhibition=100−(100×(transporter-mediateduptake)withinhibitor/(transporter-mediateduptake)withoutinhibitor).

For a further data set, the target named is T3, CYP2C8 (Homo sapiens, UniProt P10632).
T3 sequence (P10632 1-490): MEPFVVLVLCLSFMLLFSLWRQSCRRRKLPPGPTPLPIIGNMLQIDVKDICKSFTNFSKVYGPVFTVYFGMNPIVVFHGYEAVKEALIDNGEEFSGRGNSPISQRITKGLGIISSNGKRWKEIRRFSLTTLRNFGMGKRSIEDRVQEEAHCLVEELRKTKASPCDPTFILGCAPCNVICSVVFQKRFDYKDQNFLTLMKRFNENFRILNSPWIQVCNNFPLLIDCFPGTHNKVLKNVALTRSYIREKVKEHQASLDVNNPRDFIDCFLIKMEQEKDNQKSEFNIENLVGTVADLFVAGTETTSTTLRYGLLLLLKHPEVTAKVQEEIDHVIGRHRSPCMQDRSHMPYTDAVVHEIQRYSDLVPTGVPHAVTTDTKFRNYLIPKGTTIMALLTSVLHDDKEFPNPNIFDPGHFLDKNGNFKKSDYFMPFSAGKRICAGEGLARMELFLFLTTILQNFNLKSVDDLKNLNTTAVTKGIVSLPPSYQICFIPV
The note with it: hepatocytes.

In the next data set the test system is T4, OCT2.
T4 construct: expressed in transfected cells; host or cells: MDCK-II
In words: OCT2 inhibition study in MDCK cells. In kind it is in vitro ADME. The note with it: MDCK-II cell monolayer expressing OCT2, probe [14C]-metformin, 10 μM; read-out: % inhibition of OCT2-mediated transport of metformin, reference inhibitor. As to the method: as §1, §2

The subject of another data set is T5, OCT1.
T5 construct: expressed in transfected cells; host or cells: MDCK-II
The data set is described as follows: OCT1 inhibition study in MDCK cells. In kind it is in vitro ADME. The note with it: MDCK-II cell monolayer expressing OCT1, probe [3H]-MPP+, 2 μM; read-out: % inhibition of OCT1-mediated transport of MPP+, reference inhibitor. As to the method:
as §1, §2

A further data set deals with CYP1A2. In words: CYP1A2 enzyme activity induction in plated human hepatocytes. The note with it: human, probe phenacetin, 100 μM. As to the method: (§3) Upon receipt, sandwich-cultured cryopreserved human hepatocytes (with Matrigel) plated on collagen-coated 24-well plates were inspected under a microscope for general morphology and viability. Fresh culture medium (OptiCulture Hepatocyte Media) was added to each plate that passed the visual inspection. The plates were then placed in an incubator set to 37°C with 5% carbon dioxide (CO2) for overnight acclimation. […] During this time, cells in parallel wells were also treated with 50.0 μM omeprazole (inducer of CYP1A2), 1,000 μM phenobarbital (inducer of CYP2B6), or 10.0 μM rifampicin (inducer of CYP3A4) in triplicate, respectively.
(§4) The plates were then incubated at 37°C with 5% CO2 for 60 min. […] Aliquots of the supernatants were analyzed by LC-MS/MS for the formation of acetaminophen, hydroxyl-bupropion, or hydroxyl-midazolam as markers for enzyme activity of CYP1A2, CYP2B6, and CYP3A4, respectively.
(§5) The activity of each CYP enzyme was measured by comparing the peak area ratio of the corresponding product to the peak area ratio of the internal standard. The fold induction was calculated by dividing the peak area ratio of each individual well from the treatment group by the mean of the peak area ratios obtained from the vehicle control wells. […] The ΔCƬ was calculated as follows: ΔCƬ = CƬ (CYP) − CƬ (GAPDH). […] The ΔΔCƬ was calculated as follows: ΔΔCƬ = Δ CƬ (Treatment) − Δ CƬ (Vehicle). […]

The next data set relates to CYP1A2 mRNA. The data set is described as follows: in vitro. The note with it: human. As to the method: as §3
(§6) After collection of the supernatant for catalytic analysis, the remaining cells were washed and lysed with QIAGEN Buffer RLT from the QIAGEN RNeasy Kit. […]
(§7) The activity of each CYP enzyme was measured by comparing the peak area ratio of the corresponding product to the peak area ratio of the internal standard. The fold induction was calculated by dividing the peak area ratio of each individual well from the treatment group by the mean of the peak area ratios obtained from the vehicle control wells. […] The ΔCƬ was calculated as follows: ΔCƬ = CƬ (CYP) − CƬ (GAPDH). […] The ΔΔCƬ was calculated as follows: ΔΔCƬ = Δ CƬ (Treatment) − Δ CƬ (Vehicle). The fold induction of the target CYP was calculated using the following equation: Fold=2^-ΔΔCT.

Another data set has as its system BCRP. The note with it: Ko143 1 μM, 2 μM prazosin.
The subject of a further data set is T6, OAT3.
T6 construct: expressed in transfected cells; host or cells: MDCK-II
In words: OAT3 inhibition study in MDCK cells. In kind it is in vitro ADME. The note with it: MDCK-II cell monolayer expressing OAT3, probe [3H]-p-aminohippurate; probenecid 100 μM, 10 μM p-aminohippurate; read-out: % inhibition of OAT3-mediated transport of p-aminohippurate, reference inhibitor. As to the method: A 96-well cell culture plate containing a monolayer of MDCK-II cells grown on a permeable support and a corresponding receiver tray was used. The basolateral compartment of the culture plate and wells were washed with warm HBSS three times, with wells of the culture plate serving as the apical compartment. The wash was aspirated by adding 150 μL of 37°C HBSS to both compartments. […] The pre-incubation buffer from both compartments was aspirated and 150 μL of the following was added to the basal compartment. […] OATP1B1, 2 μM [^3H]-estradiol-17 β-D-glucuronide; and OATP1B3, 2 μM [^3H]-cholecystokinin octapeptide (CCK-8). […] Plates were incubated at 37°C with orbital shaking at 60 rpm for 5 min. Both sides of the permeable support were washed four times with ice-cold PBS and 60 μL of cell extraction solution was added to each well. Plates were agitated for 15 min at 120 rpm, after which a 30-μL sample of the extract was collected. […] Test article concentrations, including control samples, were evaluated by an LC-MS method. Signal to noise for probe substrates was calculated by dividing the uptake of the probe substrate in transporter-expressing cells by the uptake of probe substrate in control cells not expressing the transporter of interest.

A further data set has as its system CYP2B6. The data set is described as follows: CYP2B6 enzyme activity induction in plated human hepatocytes. The note with it: human. As to the method: as §3, §4, §5
The subject of a further data set is CYP2B6 mRNA. The data set is described as follows: CYP2B6 mRNA induction in plated human hepatocytes. The note with it: human. As to the method:
as §3, §6, §7

Usually inhibition stands for how much of the control response was suppressed. What is called IC50 is the concentration that gives 50% inhibition. Usually fold induction stands for the ratio of treated to control signal.

Experimental for CYP2C8: Preincubations were performed in 50 μL of Williams’ Medium E with 2 mM salicylamide. The salicylamide was included to reduce possible phase II conjugation to the precursor phase I metabolites. […] Human hepatocytes (pooled from 5 donors) were thawed and prepared according to the vendor’s protocol. […] Incubations were carried out at 37°C with 5% CO2. The incubation time was 45 min for phenacetin, diclofenac, dextromethorphan, midazolam, bupropion, chlorzoxazone, and testosterone and 90 min for paclitaxel and (S)-mephenytoin. The reactions were stopped by adding 200 μL of ice-cold acetonitrile (can) with tolbutamide (100 ng/mL) as the internal standard to 100 μL of hepatocyte suspension (1:2, v/v). The 96-well plate was then vortexed at 1,700 rpm for 3 min and centrifuged at 3,500 rpm for 10 min at 20°C. The supernatants were analyzed using liquid chromatography-tandem MS (LC-MS/MS).

Take `CO[C@H]1/C=C/O[C@@]2(C)Oc3c(C)c(O)c4c(O)c(c(/C=N/N5CCN(C)CC5)c(O)c4c3C2=O)NC(=O)/C(C)=C\C=C\[C@H](C)[C@H](O)[C@@H](C)[C@@H](O)[C@@H](C)[C@H](OC(C)=O)[C@@H]1C` [rifampicin, reference compound]: the values for the inhibition at 5 min, 100 μM in the data set with OATP1B3 and in the data set with OATP1B1 were 99 ± 0.955% and 98.8 ± 1.09%, respectively.
On to `Cc1ccc(C)c(OCCCC(C)(C)C(=O)O[C@@H]2O[C@H](C(=O)O)[C@@H](O)[C@H](O)[C@H]2O)c1` [gemfibrozil glucuronide, reference compound], for which, at CYP2C8, the IC50 was 960 nM.
As to `C=C[C@H]1C[N@@]2CC[C@H]1C[C@@H]2[C@@H](O)c1ccnc2ccc(OC)cc12` [quinidine], the values for the inhibition at 5 min, 1000 μM in the data set on OCT2 and with OCT1 were 98.5 ± 1.34% and 91.2 ± 1.57%, respectively.
For `COc1ccc2[nH]c([S+]([O-])Cc3ncc(C)c(OC)c3C)nc2c1` (centres unmarked) [omeprazole, reference compound], the fold induction at 72 h, 50 μM worked out at 50.6 ± 3.78 in the data set on CYP1A2 and 45.7 ± 4.51 with CYP1A2 mRNA.
On to `COc1ccc2c3c([nH]c2c1)[C@H](CC(C)C)N1C(=O)[C@H](CCC(=O)OC(C)(C)C)NC(=O)[C@@H]1C3` [Ko143], for which the “% inhibition of BCRP-mediated transport of prazosin, reference inhibitor” value in the data set with BCRP is 90.4 ± 1.89%.
On to `CCCN(CCC)S(=O)(=O)c1ccc(C(=O)O)cc1` [probenecid, reference compound], for which the inhibition at 5 min, 100 μM with OAT3 was no more than 98.3%.
For the compound `CCC1(c2ccccc2)C(=O)NC(=O)NC1=O` [phenobarbital, reference compound], the values for the fold induction at 72 h, 1000 μM with CYP2B6 and in the data set with CYP2B6 mRNA were 5.03 ± 1.06 and 9.83 ± 0.992, respectively.
